Source: ChEMBL document CHEMBL4507276 (2021)

Key:
[1] = molecular target: Serine/threonine-protein kinase MRCK beta (Homo sapiens) (UniProt Q9Y5S2); details: Compound concentration 1000.0 nM
[2] = molecular target: Glycogen synthase kinase-3 alpha (Homo sapiens) (UniProt P49840); details: Compound concentration 1000.0 nM
[3] = molecular target: Tyrosine-protein kinase Fgr (Homo sapiens) (UniProt P09769); details: Compound concentration 1000.0 nM
[4] = molecular target: Fibroblast growth factor receptor 3 (Homo sapiens) (UniProt P22607); details: Compound concentration 1000.0 nM
[5] = molecular target: Serine/threonine-protein kinase SIK2 (Homo sapiens) (UniProt Q9H0K1); details: Compound concentration 1000.0 nM
[6] = molecular target: Serine/threonine-protein kinase BRSK2 (Homo sapiens) (UniProt Q8IWQ3); details: Compound concentration 1000.0 nM
Sequence of Serine/threonine-protein kinase BRSK2 (Homo sapiens) (Q8IWQ3 whole entry): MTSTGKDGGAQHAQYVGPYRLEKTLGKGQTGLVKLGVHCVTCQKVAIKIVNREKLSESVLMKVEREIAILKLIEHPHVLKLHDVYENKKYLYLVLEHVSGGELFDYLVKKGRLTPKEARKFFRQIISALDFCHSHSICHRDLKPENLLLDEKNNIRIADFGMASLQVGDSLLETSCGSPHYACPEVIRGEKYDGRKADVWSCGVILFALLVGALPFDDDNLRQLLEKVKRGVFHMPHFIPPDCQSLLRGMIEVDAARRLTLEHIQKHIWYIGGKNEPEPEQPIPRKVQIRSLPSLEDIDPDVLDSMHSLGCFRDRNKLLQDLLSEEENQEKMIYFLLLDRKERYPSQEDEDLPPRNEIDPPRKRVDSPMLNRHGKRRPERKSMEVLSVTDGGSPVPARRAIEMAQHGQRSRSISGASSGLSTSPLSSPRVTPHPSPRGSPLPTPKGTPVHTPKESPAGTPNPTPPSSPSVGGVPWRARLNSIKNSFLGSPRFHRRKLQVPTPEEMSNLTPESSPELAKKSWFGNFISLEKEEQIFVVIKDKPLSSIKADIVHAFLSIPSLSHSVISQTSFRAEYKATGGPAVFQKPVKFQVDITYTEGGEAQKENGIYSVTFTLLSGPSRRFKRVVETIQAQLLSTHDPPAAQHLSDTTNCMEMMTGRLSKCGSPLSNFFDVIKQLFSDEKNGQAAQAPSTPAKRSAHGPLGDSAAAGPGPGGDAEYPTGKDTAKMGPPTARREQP

[7] = molecular target: T1, Aurora kinase A (Homo sapiens) (UniProt O14965); details: Compound concentration 1000.0 nM
T1 sequence (whole entry): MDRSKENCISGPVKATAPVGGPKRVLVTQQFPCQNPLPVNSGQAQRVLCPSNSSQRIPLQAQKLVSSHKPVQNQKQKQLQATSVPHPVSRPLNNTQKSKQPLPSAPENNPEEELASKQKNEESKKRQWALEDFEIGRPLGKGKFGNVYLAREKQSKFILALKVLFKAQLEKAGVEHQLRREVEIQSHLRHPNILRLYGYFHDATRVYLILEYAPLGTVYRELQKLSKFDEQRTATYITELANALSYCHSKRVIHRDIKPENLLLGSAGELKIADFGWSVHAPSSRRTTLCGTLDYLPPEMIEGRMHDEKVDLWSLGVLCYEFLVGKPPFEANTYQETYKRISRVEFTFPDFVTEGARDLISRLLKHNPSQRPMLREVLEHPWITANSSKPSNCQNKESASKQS

[8] = molecular target: Cyclin-dependent kinase 3 (Homo sapiens) (UniProt Q00526); details: Compound concentration 1000.0 nM
Sequence of Cyclin-dependent kinase 3 (Homo sapiens) (Q00526 whole entry, looked up): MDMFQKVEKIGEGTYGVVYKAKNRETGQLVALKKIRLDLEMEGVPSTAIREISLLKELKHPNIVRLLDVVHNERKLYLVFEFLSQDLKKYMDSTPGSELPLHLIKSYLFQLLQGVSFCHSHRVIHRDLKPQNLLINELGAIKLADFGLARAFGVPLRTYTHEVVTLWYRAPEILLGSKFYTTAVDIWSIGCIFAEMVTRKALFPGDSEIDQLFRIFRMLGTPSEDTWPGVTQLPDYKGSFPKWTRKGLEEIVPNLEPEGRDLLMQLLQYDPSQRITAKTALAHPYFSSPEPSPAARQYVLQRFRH

[9] = molecular target: Calcium/calmodulin-dependent protein kinase type 1B (Homo sapiens) (UniProt Q6P2M8); details: Compound concentration 1000.0 nM
Sequence of Calcium/calmodulin-dependent protein kinase type 1B (Homo sapiens) (Q6P2M8 whole entry): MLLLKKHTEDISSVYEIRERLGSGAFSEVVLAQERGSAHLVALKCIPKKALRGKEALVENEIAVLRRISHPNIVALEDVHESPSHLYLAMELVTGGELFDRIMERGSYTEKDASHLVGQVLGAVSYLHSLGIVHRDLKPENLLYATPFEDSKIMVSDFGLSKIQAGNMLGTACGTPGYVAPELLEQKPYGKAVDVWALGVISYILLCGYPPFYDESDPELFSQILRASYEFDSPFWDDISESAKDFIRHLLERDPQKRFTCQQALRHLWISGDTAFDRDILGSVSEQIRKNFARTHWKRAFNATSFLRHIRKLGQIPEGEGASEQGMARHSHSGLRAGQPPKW

[10] = molecular target: T2, Tyrosine-protein kinase ITK/TSK (Homo sapiens) (UniProt Q08881); details: Compound concentration 1000.0 nM
T2 sequence (whole entry): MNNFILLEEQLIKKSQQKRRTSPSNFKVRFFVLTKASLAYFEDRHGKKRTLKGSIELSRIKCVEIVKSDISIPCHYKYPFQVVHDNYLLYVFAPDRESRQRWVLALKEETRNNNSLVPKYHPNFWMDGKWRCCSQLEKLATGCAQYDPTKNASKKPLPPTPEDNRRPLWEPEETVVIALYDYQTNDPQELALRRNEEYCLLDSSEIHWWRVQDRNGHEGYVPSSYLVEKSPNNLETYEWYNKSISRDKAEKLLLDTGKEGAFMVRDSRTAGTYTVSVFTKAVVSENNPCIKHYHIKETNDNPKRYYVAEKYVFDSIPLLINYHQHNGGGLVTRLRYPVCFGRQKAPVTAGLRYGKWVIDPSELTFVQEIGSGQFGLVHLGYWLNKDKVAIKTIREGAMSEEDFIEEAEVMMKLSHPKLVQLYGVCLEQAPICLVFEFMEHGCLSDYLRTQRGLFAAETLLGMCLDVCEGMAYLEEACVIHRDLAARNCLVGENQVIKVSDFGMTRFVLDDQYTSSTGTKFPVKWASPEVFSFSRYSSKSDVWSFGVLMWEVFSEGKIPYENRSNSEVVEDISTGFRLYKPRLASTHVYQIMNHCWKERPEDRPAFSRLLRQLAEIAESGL

[11] = molecular target: Rho-associated protein kinase 2 (Homo sapiens) (UniProt O75116); details: Compound concentration 1000.0 nM
Sequence of Rho-associated protein kinase 2 (Homo sapiens) (O75116 whole entry, looked up): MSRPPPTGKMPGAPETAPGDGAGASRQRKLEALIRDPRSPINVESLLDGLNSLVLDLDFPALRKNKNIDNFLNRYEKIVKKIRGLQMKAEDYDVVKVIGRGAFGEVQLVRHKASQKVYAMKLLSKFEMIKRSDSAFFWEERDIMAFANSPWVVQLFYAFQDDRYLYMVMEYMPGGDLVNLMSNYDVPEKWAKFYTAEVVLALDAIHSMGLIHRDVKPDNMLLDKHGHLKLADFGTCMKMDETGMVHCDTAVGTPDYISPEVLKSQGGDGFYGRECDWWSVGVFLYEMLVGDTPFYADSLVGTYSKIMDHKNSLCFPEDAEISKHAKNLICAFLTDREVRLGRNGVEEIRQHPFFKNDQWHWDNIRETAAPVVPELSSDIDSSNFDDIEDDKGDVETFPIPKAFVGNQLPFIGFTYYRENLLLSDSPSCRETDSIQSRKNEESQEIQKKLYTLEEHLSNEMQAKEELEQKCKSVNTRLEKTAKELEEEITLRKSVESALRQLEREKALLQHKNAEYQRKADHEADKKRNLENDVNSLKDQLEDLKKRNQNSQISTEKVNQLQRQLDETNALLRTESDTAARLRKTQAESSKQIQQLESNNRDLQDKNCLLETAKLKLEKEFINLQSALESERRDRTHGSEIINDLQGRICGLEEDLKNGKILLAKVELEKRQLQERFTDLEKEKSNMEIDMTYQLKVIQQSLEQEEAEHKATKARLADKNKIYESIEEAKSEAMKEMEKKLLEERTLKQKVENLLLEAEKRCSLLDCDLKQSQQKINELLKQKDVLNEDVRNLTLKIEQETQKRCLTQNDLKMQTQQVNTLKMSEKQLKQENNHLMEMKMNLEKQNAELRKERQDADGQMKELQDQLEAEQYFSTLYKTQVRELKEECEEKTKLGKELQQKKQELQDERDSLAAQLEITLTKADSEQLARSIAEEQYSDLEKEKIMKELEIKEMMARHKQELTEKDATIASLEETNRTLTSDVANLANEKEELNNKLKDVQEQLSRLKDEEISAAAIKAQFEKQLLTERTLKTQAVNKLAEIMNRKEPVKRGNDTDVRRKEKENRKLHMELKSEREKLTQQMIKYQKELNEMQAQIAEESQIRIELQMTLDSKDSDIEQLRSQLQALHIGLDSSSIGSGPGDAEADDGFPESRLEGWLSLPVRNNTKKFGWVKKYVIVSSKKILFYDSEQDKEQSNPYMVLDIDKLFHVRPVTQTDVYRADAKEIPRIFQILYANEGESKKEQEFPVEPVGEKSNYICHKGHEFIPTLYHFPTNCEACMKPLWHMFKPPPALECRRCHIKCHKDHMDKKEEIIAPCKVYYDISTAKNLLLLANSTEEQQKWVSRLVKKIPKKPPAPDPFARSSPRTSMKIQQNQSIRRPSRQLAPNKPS

[12] = molecular target: Cyclin-dependent kinase 2 homolog (Plasmodium falciparum (isolate 3D7)) (UniProt P61075); details: Compound concentration 1000.0 nM
[13] = test system: Tyrosine-protein kinase ABL1 (Homo sapiens), P00519 [F317I]; details: Compound concentration 1000.0 nM
[14] = molecular target: Sodium-dependent serotonin transporter (Homo sapiens) (UniProt P31645); details: Compound concentration 10.0 uM
Sequence of Sodium-dependent serotonin transporter (Homo sapiens) (P31645 whole entry, looked up): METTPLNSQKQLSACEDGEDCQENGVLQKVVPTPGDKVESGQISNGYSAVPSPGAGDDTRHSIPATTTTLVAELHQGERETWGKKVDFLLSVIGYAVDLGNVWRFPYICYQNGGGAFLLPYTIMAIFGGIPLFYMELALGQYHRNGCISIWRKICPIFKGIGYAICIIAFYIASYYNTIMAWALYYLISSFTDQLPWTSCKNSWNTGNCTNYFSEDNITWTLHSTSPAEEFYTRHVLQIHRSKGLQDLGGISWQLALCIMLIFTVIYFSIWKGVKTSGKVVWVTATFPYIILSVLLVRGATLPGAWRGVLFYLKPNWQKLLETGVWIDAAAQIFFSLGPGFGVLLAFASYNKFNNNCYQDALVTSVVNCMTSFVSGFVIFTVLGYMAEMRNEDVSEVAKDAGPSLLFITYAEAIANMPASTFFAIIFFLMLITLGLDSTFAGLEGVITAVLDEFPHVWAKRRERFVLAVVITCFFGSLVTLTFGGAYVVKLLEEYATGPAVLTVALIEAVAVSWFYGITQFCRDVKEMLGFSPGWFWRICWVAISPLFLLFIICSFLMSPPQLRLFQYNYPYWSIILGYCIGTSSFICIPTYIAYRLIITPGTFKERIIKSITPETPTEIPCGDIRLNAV

[15] = molecular target: Tyrosine-protein kinase SYK (Homo sapiens) (UniProt P43405); details: Compound concentration 1000.0 nM
[16] = molecular target: T3, Cytoplasmic tyrosine-protein kinase BMX (Homo sapiens) (UniProt P51813); details: Compound concentration 1000.0 nM
T3 sequence (whole entry): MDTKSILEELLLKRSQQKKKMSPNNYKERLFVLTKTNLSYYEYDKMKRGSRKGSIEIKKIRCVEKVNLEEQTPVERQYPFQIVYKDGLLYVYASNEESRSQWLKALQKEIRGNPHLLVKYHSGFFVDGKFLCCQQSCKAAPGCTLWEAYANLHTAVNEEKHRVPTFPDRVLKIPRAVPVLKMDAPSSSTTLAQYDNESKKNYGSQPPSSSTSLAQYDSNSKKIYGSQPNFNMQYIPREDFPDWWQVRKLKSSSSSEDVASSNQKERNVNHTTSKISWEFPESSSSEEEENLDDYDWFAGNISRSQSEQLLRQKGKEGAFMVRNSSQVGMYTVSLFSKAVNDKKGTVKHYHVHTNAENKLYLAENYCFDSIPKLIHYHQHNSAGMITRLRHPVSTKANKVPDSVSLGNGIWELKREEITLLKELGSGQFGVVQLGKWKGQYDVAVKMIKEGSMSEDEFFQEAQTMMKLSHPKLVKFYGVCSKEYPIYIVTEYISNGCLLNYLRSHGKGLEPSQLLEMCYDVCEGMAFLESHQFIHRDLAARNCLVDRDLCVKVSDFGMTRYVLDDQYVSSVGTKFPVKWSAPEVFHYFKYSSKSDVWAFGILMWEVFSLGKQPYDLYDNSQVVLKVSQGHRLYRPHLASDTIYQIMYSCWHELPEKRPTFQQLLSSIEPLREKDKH

[17] = molecular target: 5'-AMP-activated protein kinase catalytic subunit alpha-2 (Homo sapiens) (UniProt P54646); details: Compound concentration 1000.0 nM
Sequence of 5'-AMP-activated protein kinase catalytic subunit alpha-2 (Homo sapiens) (P54646 whole entry, looked up): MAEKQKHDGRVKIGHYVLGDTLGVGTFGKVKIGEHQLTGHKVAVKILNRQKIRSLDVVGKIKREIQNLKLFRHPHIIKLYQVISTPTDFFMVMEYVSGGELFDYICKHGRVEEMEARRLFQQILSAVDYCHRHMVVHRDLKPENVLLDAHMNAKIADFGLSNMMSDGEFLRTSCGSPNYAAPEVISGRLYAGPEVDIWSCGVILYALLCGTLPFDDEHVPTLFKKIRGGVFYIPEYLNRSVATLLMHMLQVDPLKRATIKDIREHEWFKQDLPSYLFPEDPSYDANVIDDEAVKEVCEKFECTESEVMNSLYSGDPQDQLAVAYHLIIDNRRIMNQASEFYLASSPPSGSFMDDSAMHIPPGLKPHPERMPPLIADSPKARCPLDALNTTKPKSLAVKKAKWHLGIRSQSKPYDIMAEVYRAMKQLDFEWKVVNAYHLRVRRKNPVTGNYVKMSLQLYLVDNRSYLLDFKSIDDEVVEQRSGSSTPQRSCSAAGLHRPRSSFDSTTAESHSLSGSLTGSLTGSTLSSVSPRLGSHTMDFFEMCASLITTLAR

[18] = molecular target: Calcium/calmodulin-dependent protein kinase type 1G (Homo sapiens) (UniProt Q96NX5); details: Compound concentration 1000.0 nM
[19] = molecular target: Tyrosine-protein kinase Yes (Homo sapiens) (UniProt P07947); details: Compound concentration 1000.0 nM
[20] = molecular target: Receptor-interacting serine/threonine-protein kinase 4 (Homo sapiens) (UniProt P57078); details: Compound concentration 1000.0 nM
[21] = molecular target: Dual specificity mitogen-activated protein kinase kinase 7 (Homo sapiens) (UniProt O14733); details: Compound concentration 1000.0 nM
[22] = molecular target: Serine/threonine-protein kinase SBK1 (Homo sapiens) (UniProt Q52WX2); details: Compound concentration 1000.0 nM
Sequence of Serine/threonine-protein kinase SBK1 (Homo sapiens) (Q52WX2 whole entry): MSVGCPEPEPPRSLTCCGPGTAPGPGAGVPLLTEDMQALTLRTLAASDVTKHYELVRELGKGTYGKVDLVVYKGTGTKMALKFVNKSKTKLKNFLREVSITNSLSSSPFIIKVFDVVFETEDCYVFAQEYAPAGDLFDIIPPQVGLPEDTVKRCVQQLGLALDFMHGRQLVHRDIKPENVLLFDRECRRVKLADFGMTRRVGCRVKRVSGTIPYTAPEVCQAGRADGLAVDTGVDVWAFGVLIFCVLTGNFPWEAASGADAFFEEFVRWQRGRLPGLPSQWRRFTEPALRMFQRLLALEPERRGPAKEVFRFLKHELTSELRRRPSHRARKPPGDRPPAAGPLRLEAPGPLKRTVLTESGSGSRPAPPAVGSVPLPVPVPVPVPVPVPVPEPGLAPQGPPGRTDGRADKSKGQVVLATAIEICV

Sequence of Tyrosine-protein kinase Fgr (Homo sapiens) (P09769 2-529 limits assumed): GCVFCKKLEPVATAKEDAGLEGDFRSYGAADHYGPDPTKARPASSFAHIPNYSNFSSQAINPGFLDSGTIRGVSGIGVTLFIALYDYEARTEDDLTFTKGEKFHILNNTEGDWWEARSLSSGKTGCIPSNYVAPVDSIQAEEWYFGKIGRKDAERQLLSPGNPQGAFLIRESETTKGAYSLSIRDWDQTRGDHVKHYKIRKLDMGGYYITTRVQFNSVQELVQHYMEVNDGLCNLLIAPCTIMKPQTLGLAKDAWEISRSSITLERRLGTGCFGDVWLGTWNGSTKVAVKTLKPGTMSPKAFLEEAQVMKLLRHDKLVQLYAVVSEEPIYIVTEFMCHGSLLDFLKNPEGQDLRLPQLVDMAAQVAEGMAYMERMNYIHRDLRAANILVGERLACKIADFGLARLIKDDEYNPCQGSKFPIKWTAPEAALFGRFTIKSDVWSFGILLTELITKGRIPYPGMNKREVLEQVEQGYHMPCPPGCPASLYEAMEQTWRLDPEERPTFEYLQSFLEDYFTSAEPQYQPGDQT

| Structure (SMILES) | residual activity [1] [%] | residual activity [2] [%] | residual activity [3] [%] | residual activity [4] [%] | residual activity [5] [%] | residual activity [6] [%] | residual activity [7] [%] | residual activity [8] [%] | residual activity [9] [%] | residual activity [10] [%] | residual activity [11] [%] | residual activity [12] [%] | residual activity [13] [%] | inhibition [14] [%] | residual activity [15] [%] | residual activity [16] [%] | residual activity [17] [%] | residual activity [18] [%] | residual activity [19] [%] | residual activity [20] [%] | further results |
| --- | --- | --- | --- | --- | --- | --- | --- | --- | --- | --- | --- | --- | --- | --- | --- | --- | --- | --- | --- | --- | --- |
| CN(C)C(=O)Cn1cc(-c2nc(C3(c4ccc(-c5cnc(N)nc5)cc4)CC3)no2)cn1 [BI 0153] | 85 | 100 | 100 | 100 | 100 | 77 | 82 | 100 | 77 | 92 | 89 | 100 | 76 | 5.35 | 77 | 88 | 86 | 100 | 87 | 70 | residual activity [21]: 87%; residual activity [22]: 83% |
| CN(C)C(=O)Cn1cc(-c2nc([C@@](C)(c3ccc(-c4cnc(N)nc4)cc3)C3CC3)no2)cn1 [BI 665915] | 99 | 100 | 100 | 94 | 93 | 100 | 73 | 100 | 88 | 99 | 100 | 0 | 96 | 6.28 | 73 | 93 | 100 | 100 | 94 | 93 | residual activity [21]: 94%; residual activity [22]: 87% |
